Values quoted from earlier work in paper PMC3065210 (Inorganic Chemistry, 2011).
Where two headings read alike, the source gives them in different places. One block for each compound: values may come before it.

Key:
[1] = not given; remark: listed apart in the source

accumulation in the liver (24 h p.i., previously published data (text says mice)): 0.024 ± 0.002 %ID/g
activity in blood (rats, 24 h, previously published data): 0.011 ± 0.004 %ID/g
tissue associated radioactivity in kidneys (rats, 24 h p.i., previously published data): 0.064 ± 0.007 %ID/g
liver clearance (percent reduction) (rats, at 22 or 24 h PI, from published data): 69.5%
kidney clearance (rats, out to 22 or 24 h PI, from published data): 95.6%
SMILES: O=C([O-])CN1CCN2CCN(CC1)CCN(CC(=O)[O-])CC2.[64Cu+2] [^64Cu-CB-DO2A]

SMILES: C1CNCCN2CCNCCN(C1)CC2.[Cu+2] [Cu-CB-homocyclen]
acid inertness half-life ([1]; 1 M HCl, 30 °C): 4.8 h

acid inertness half-life ([1]; 5 M HCl, 90 °C): more than 6 d
SMILES: O=C([O-])CN1CCCN2CCN(CCCN(CC(=O)[O-])CC2)CC1.[Cu+2] [Cu-CB-TE2A]
